The numbers were not newly measured in US20090005321A1, “Phenylazetidinone Derivatives” (Microbia, Inc., priority 2005, published 2009), which cites them from elsewhere.

The conditions of data set [1]: in humans.
The conditions of data set [2]: in vivo.

Regarding `O=C1[C@H](CC[C@H](O)c2ccc(F)cc2)[C@@H](c2ccc(O)cc2)N1c1ccc(F)cc1` [ezetimibe, (3R,4S)-1-(4-fluorophenyl)-3-[(3S)-3-(4-fluorophenyl)-3-hydroxypropyl]-4-(4-hydroxyphenyl)azetidin-2-one], in data set [1], the fat-soluble vitamin absorption entry is listed as “does not appear to affect”. In addition, the “absorption of taurocholic acid” value in data set [2] is recorded as “does not inhibit”.
